From paper PMC9253031, “Redox-sensitive doxorubicin liposome: a formulation approach for targeted tumor therapy” (Scientific Reports, 2022) come the findings set out here.

The test system of series [1] is C26 cell line (murine colon carcinoma cells). Description: MTT cytotoxicity, C26 cells. The class given is cell-based, mouse. The note with it: 48 h treatment. How it is done: (§1) C26 and NIH-3T3 cell lines were cultured at 37 °C in a 5% CO2/95% air humidified atmosphere in RPMI 1640 and DEMEM media, respectively; the media were supplemented with 10% FCS and 100 U/mL penicillin, and 100 μg/mL streptomycin.
(§2) C26 and NIH-3T3 cells were seeded at 5000 cells/well into 96-well plates. […] After 48 h incubation at 37 °C, the cells were washed with PBS and MTT (10 μL/well MTT and 100 μL/well cell media) was added. After an additional incubation for 4 h at 37 °C, the absorbance of MTT was measured using a microplate reader (Awareness Technology Inc., USA) at 570 nm. Relative cell death (R) was calculated as follows:
(§3) R = 1 − [(A sample − A blank)/(A control − A blank)], where A sample and A control are the absorbances of the cells incubated with the sample solutions and the culture medium as the control group, respectively. A blank is the absorbance of MTT solution in a well without cells. The IC50 values were calculated using CalcuSyn Version 2.0 software (BIOSOFT, UK)[52].

The test system of series [2] is NIH-3T3 cell line (mouse embryonic fibroblast cells). Description: MTT cytotoxicity, NIH-3T3 cells. The class given is cell-based. To be noted: 48 h treatment. How it is done:
as §1, §2, §3

The subject of the next series is C26 cells. Description: Dox cellular uptake by spectrofluorometry. It counts as cell-based, mouse. The note with it: 1 and 3 h incubation, compared to Caelyx. How it is done: C26 cells were seeded at 1 × 10^6 cells/well in 6-well plates and incubated overnight. […] After 1 and 3 h of incubation at 37 °C, cells were washed with cold PBS. Then, acidified isopropyl alcohol (0.9 mL) was added to each well and transferred to a 2 mL vial and stored at 4 °C for 24 h. Samples were centrifuged for 10 min at 14,000 rpm.

Series [3] is described as follows: Plasma Dox concentration and pharmacokinetics after i.v. administration. The note with it: Dox 10 mg/kg, mice. It counts as in vivo, BALB/c mice.
Description: At different time points, 300 μL of blood were collected by retro-orbital puncture into EDTA containing tubes and were immediately centrifuged at room temperature for 10 min (4000×g) to obtain plasma. The resulting plasma samples were diluted with acidified isopropyl alcohol and were stored at 4 °C for 24 h.
The pharmacokinetic parameters were calculated using the Microsoft Excel add-in program PK Solver. The non-compartmental model was chosen to perform the pharmacokinetic analysis. This included the total area under the plasma concentration–time curve from time zero to time infinity (AUC), mean residence time (MRT), time-averaged total body clearance (CL), and terminal half-life (t1/2).
A further series has as its system C26 tumor. Description: Anti-tumor efficacy and survival in mice bearing C26 colon cancer. To be noted: single i.v. dose 10 mg/kg Dox.

Description for C26 tumor: Tumors were then allowed to grow until inoculated mice had palpable tumors (8 days). […] Control mice received 200 µL of PBS. From the first day of treatment, the animals’ weight, tumor volume, and overall health were monitored three times a week for 60 days. Tumor volume was calculated with calipers in three dimensions using the following formula:
Tumor volume (mm^3) = (height × length × width) × 0.5.
For ethical consideration, the exclusion criteria were: (1) tumor enlargement (more than 2 cm in one dimension), (2) bodyweight loss of more than 15% of the initial mass, (3) to become sick or lethargic. The survival results were determined by Kaplan–Meier analysis. The time to reach the end-point (TTE) for each mouse was calculated from the line equation obtained by logarithmic regression of the tumor growth curve. The percent of tumor growth delay (%TGD) was calculated from the following formula[63]–[65]: %TGD=[meanTTEoftreatmentgroup-meanTTEofcontrolgroup/meanTTEofcontrolgroup]×100.

With `COc1cccc2c1C(=O)c1c(O)c3c(c(O)c1C2=O)C[C@@](O)(C(=O)CO)C[C@@H]3O[C@H]1C[C@H](N)[C@H](O)[C@H](C)O1.Cl` [Dox, Doxorubicin hydrochloride], in series [1], the “IC50 (C26) 48 h” value was 0.01 ± 0.010 µg/mL. For the same molecule, in series [2], the “IC50 (NIH) 48 h” value came to 0.042 ± 0.013 µg/mL. Besides, the “Cellular uptake of Dox (spectrofluorometry)” value with C26 cells is on record as “highest cellular uptake”. In series [3], the “AUC (total area under the plasma concentration-time curve)” value is 7200 ng·h/mL and the “Cl (clearance)” value is on record as 1.38 (mg)/(μg/mL)/h. In the series with C26 tumor, the “MST (median survival time)” value came out at 33.10 days and the “TGD (tumor growth delay)” value is 10.12%. Moreover, the “TTE (time to reach end point) ± SD” value in the series on C26 tumor (C26 tumor, BALB/c mice, listed as Dox.HCl, 10 mg/kg) was 32.40 ± 5.94 days.

As usually defined, the melting point is the temperature of the solid-liquid transition. For `O=C(O)CCCCCCCCC[Se][Se]CCCCCCCCCC(=O)O`, the melting point was 82 °C.
